Measured values published in patent US9593155B2, “Oxyntomodulin analogs” (priority 2009, dated 2017).
Read-outs that look alike come from different tables or passages of the source. Blank lines part the entries; values can stand above or below the compound they belong to. *1 amine or outer side, *2 acyl side, *3 side chain or, on linkers, in order; H or OH if unused. Where a SMILES comes first, the peptide text is derived from it. Bridges are numbered along the chain shown (N, C = ends). Where no end group is shown, it is not given here. Side-chain parts run from the residue outwards. [ ]: non-standard residue; d: D form. The star is where a group is joined. X2 = CC(C)CCC[C@@H](C)[C@H]1CC[C@H]2[C@@H]3CC=C4C[C@@H](OC(=O)CCOCCOCCOCCOCCOCCOCCOCCOCCOCCOCCOCCOCCNC(=O)C*)CC[C@]4(C)[C@H]3CC[C@]12C; γGlu = O=C(O)[C@H](CCC(=O)[*:2])N[*:1]; Palmitoyl = CCCCCCCCCCCCCCCC(=O)*; Aib = CC(C)(N)C(=O)O

Key:
[1] = hyperglycemic clamp in DIO mice; assay type: in vivo, mouse; conditions: ~16 μg/kg/min i.v., last 60 minutes
hGCGR [2] = target: T1, hGCGR (Homo sapiens, UniProt P47871); assay: ex vivo perfused liver glycogenolysis assay (13C NMR), humanized GCGR mice; conditions: at 300 nM
[3] = intraperitoneal glucose tolerance test (IPGTT) in lean C57BL/6N mice; assay type: in vivo, mouse
hGCGR [4] = target: T1, hGCGR; assay: fluorescence cell based cAMP assay, CHO cells stably expressing GCGR; conditions: GCGR EC50, Table 4
Description: (§1) We initially screened peptides in fluorescence cell based assays that measure production of cyclic-AMP (cAMP), using CHO cell lines stably expressing either recombinant human GLP-1R or human GCGR. Determination of Mouse and human GLP-1R and GCGR Agonist Activity was essentially as follows. CHO cells stably expressing mouse or human GLP-1R or GCGR were grown in Iscove's Modified Dulbecco's Medium (IMDM), 10% FBS, 1 mM L-glutamine, penicillin-streptomycin (100 μ/mL) and 750 μg G418/mL for three-four days before harvesting using Enzymefree Dissociation Media (EFDM, Specialty Media). […] The assay was terminated with the addition of the LANCE kit Detection buffer as per the manufacturer's instructions. The plates were held an additional hour at room temperature, then increasing cAMP levels were detected by a decrease in TR-FRET signal as measured in an EnVision counter (PerkinElmer) in comparison to a standard curve of cAMP as per the manufacturer's instructions. Data were analyzed using the linear and nonlinear regression analysis software, GraphPad Prism.
(§2) The in vitro potencies shown in Table 10 or Table 11 were determined from the results of assays that were similar to either the cell-based cAMP assays described herein above (Table 10) or the cell-based cAMP assays described in International Published Application No. WO2008101017, which is incorporated herein in its entirety, in particular the cell-based cAMP assays described therein (Table 11).

[5] = 14 day chronic infusion food intake and body weight study in DIO mice; assay type: in vivo, mouse; conditions: for Cumulative food intake change / Cumulative weight change: 14 day chronic infusion
GCGR = target: T2, GCGR (Mus musculus, UniProt Q61606); assay: in vivo GCGR receptor occupancy competition assay with 125I-glucagon in wild-type mice
T2 construct: from tissue; host or cells: liver of wild-type mice, dosed in vivo

[6] = pI of the peptide analogs
hGLP-1R [7] = target: T3, hGLP-1R (Homo sapiens, UniProt P43220); assay: fluorescence cell based cAMP assay, CHO cells stably expressing GLP-1R; parameters: expressed in transfected cells; conditions: hGLP-1R EC50, Table 10
Description: as §1, with “The” for “The assay was terminated with the addition of the LANCE kit Detection buffer as per the manufacturer's instructions. The”
as §2

hGCGR [8] = target: T1, hGCGR; assay: cell-based cAMP assay as described in WO2008101017 (Table 11), hGCGR
Excerpt: (§3) This example presents tables showing the in vitro potencies of various peptide analogs at the human GLP-1 receptor (hGLP-1R) and the human glucagon receptor (hGCGR).

hGLP-1R [9] = target: T3, hGLP-1R; assay: cell-based cAMP assay as described in WO2008101017 (Table 11), hGLP-1R
Excerpt: as §3

T1 sequence (P47871 26-477): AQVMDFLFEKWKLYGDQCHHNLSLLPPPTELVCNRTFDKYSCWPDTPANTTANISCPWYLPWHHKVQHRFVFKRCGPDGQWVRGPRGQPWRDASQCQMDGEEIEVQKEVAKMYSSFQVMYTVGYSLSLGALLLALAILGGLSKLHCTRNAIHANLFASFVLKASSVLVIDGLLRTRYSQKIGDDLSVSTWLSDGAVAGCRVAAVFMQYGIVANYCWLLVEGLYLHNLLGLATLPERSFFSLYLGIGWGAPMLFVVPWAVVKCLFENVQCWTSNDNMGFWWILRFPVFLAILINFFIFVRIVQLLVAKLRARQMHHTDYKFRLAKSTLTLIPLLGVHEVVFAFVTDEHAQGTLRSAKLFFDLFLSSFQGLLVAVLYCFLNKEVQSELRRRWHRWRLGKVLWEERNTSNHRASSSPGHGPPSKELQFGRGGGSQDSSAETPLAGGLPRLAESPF
T3 sequence (P43220 24-463): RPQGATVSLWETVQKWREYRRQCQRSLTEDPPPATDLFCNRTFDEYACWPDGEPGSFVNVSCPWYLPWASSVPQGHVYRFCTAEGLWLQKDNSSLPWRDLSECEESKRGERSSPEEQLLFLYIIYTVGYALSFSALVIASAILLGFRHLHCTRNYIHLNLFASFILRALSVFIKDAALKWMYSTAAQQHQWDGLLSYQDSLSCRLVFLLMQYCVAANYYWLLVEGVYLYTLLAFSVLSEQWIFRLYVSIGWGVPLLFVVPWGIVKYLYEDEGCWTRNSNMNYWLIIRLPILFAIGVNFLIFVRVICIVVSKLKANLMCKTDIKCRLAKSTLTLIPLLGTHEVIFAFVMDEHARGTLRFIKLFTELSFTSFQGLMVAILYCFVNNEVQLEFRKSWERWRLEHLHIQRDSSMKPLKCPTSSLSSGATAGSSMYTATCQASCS
T2 sequence (Q61606 27-485): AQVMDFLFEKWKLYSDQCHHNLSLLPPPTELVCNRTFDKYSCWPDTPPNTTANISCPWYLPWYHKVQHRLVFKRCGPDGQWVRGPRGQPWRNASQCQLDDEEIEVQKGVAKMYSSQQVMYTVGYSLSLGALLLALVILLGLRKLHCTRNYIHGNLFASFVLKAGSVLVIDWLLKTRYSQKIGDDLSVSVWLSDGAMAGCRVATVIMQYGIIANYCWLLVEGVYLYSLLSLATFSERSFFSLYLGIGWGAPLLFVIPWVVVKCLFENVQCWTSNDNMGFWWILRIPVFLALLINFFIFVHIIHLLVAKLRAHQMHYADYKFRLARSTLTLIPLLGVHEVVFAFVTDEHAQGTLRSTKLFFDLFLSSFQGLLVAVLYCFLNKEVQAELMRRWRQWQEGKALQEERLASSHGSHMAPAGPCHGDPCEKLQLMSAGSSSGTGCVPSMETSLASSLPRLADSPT

glycogenolysis induced (hGCGR [2]): about 58%
EC50 (hGCGR [4]): 1630 nM
GCGR occupancy (GCGR; subcutaneous, dose not given): 0%
Compound: HSEGTFTSDYSKYLDSRRAQDFVQWLMNTKRNRNNIA [OXM-Q3E]
GIR0-60 (glucose infusion rate) [1]: 55 ± 4 mg/kg/min
effectiveness at reducing glucose relative to native peptide ([3]; comparison of the minimal effective dose, IPGTT): about 10 fold
blood glucose excursion in IPGTT ([3]; lean C57BL/6N mice, s.c.): significantly reduced blood glucose excursion in a dose-dependent manner
ΔBW ([5]; 5 mg/kg): −2.4%
Cumulative food intake change ([5]; 0.5 mg/kg): 215 kcal
Cumulative weight change ([5]; 0.5 mg/kg): -0.21 g
Cumulative food intake change ([5]; 5 mg/kg): 207 kcal
Cumulative weight change ([5]; 5 mg/kg): -0.21 g

GCGR occupancy (GCGR; 1.5 mpk): 84%
Compound: glucagon [reference compound]

The next lines start with the compound.

Compound: CSCC[C@H](NC(=O)[C@H](CC(C)C)NC(=O)[C@H](Cc1c[nH]c2ccccc12)NC(=O)[C@H](CCC(N)=O)NC(=O)[C@@H](NC(=O)[C@H](Cc1ccccc1)NC(=O)[C@H](CC(=O)O)NC(=O)[C@@H]1CCCCNC(=O)CC[C@H](NC(=O)[C@H](CC(=O)O)NC(=O)[C@H](CC(C)C)NC(=O)[C@H](Cc2ccc(O)cc2)NC(=O)[C@H](CCCCN)NC(=O)[C@H](CO)NC(=O)[C@H](Cc2ccc(O)cc2)NC(=O)[C@H](CC(=O)O)NC(=O)[C@H](CO)NC(=O)[C@@H](NC(=O)[C@H](Cc2ccccc2)NC(=O)[C@@H](NC(=O)CNC(=O)[C@H](CCC(N)=O)NC(=O)C(C)(C)NC(=O)[C@@H](N)Cc2c[nH]cn2)[C@@H](C)O)[C@@H](C)O)C(=O)N[C@@H](CCCNC(=N)N)C(=O)N[C@@H](CCCNC(=N)N)C(=O)N[C@@H](C)C(=O)N1)C(C)C)C(=O)N[C@@H](CC(N)=O)C(=O)N[C@H](C(=O)N[C@@H](CCCCN)C(=O)N[C@@H](CCC(=O)N[C@@H](CCC(=O)N[C@@H](CSCC(=O)NCCOCCOCCOCCOCCOCCOCCOCCOCCOCCOCCOCCOCCC(=O)O[C@H]1CC[C@@]2(C)C(=CC[C@H]3[C@@H]4CC[C@H]([C@H](C)CCCC(C)C)[C@@]4(C)CC[C@@H]32)C1)C(=O)O)C(=O)O)C(=O)O)[C@@H](C)O [OXM395] (H-H[Aib]QGTFTSDYSKYLDERRAKDFVQWLMNTK[γGlu][γGlu]C(X2)-OH; lactam 16-20; N-terminus assumed)
pI [6]: about 5.4
pI ([6]; Table 10): 5.4
EC50 (hGLP-1R [7]): 0.7 nM

Compound: CCCCCCCCCCCCCCCC(=O)N[C@@H](CCC(=O)N[C@@H](CCC(=O)NCCCC[C@H](NC(=O)[C@H](CC(=O)O)NC(=O)[C@H](CO)NC(=O)[C@@H](NC(=O)[C@H](Cc1ccccc1)NC(=O)[C@@H](NC(=O)CNC(=O)[C@H](CCC(N)=O)NC(=O)[C@@H](CO)NC(=O)[C@@H](N)Cc1c[nH]cn1)[C@@H](C)O)[C@@H](C)O)C(=O)N[C@@H](CO)C(=O)N[C@@H](CCCCN)C(=O)N[C@@H](Cc1ccc(O)cc1)C(=O)N[C@@H](CC(C)C)C(=O)N[C@@H](CC(=O)O)C(=O)NC(C)(C)C(=O)N[C@@H](CCCNC(=N)N)C(=O)N[C@@H](CCCNC(=N)N)C(=O)N[C@@H](C)C(=O)N[C@@H](CCC(N)=O)C(=O)N[C@@H](CC(=O)O)C(=O)N[C@@H](Cc1ccccc1)C(=O)N[C@H](C(=O)N[C@@H](CCC(N)=O)C(=O)N[C@@H](Cc1c[nH]c2ccccc12)C(=O)N[C@@H](CC(C)C)C(=O)N[C@@H](CCSC)C(=O)N[C@@H](CC(N)=O)C(=O)N[C@H](C(=O)N[C@H](CCCCN)C(=O)N[C@@H](CCC(N)=O)C(=O)O)[C@@H](C)O)C(C)C)C(=O)O)C(=O)O [MM103]
EC50 (hGCGR [8]): 0.005 nM
EC50 (hGLP-1R [9]): 0.026 nM

Compound: CCCCCCCCCCCCCCCC(=O)N[C@@H](CCC(=O)N[C@@H](CCC(=O)NCCCC[C@H](NC(=O)[C@H](CC(=O)O)NC(=O)[C@H](CO)NC(=O)[C@@H](NC(=O)[C@H](Cc1ccccc1)NC(=O)[C@@H](NC(=O)CNC(=O)[C@H](CCC(N)=O)NC(=O)[C@@H](CO)NC(=O)[C@@H](N)Cc1c[nH]cn1)[C@@H](C)O)[C@@H](C)O)C(=O)N[C@@H](CO)C(=O)N[C@@H](CCCCN)C(=O)N[C@@H](Cc1ccc(O)cc1)C(=O)N[C@@H](CC(C)C)C(=O)N[C@@H](CC(=O)O)C(=O)N[C@@H](CCC(=O)O)C(=O)N[C@@H](CCCNC(=N)N)C(=O)N[C@@H](CCCNC(=N)N)C(=O)N[C@@H](C)C(=O)N[C@@H](CCC(N)=O)C(=O)N[C@@H](CC(=O)O)C(=O)N[C@@H](Cc1ccccc1)C(=O)N[C@H](C(=O)N[C@@H](CCC(N)=O)C(=O)N[C@@H](Cc1c[nH]c2ccccc12)C(=O)N[C@@H](CC(C)C)C(=O)N[C@@H](CCSC)C(=O)N[C@@H](CC(N)=O)C(=O)N[C@H](C(=O)N[C@@H](CCCCN)C(=O)N[C@@H](CCC(N)=O)C(=O)O)[C@@H](C)O)C(C)C)C(=O)O)C(=O)O [MM111] (H-H[dS]QGTFTSDK([γGlu-γGlu-Palmitoyl])SKYLDERRAQDFVQWLMNTKQ-OH)
EC50 (hGCGR [8]): 0.005 nM
EC50 (hGLP-1R [9]): 0.007 nM
